These results are taken from patent US20100130620A1, “NOVEL USE OF HYDROXYTYROSOL AND OLIVE EXTRACTS/CONCENTRATES CONTAINING IT” (priority 2007, published 2010).

One data set relates to ARPE-19 cells. The experiment in a line: JC-1 assay for mitochondrial membrane potential. The conditions noted are these: 10-100 μM HTS, no acrolein. The class given is cell-based, human. The procedure:
(§1) The human ARPE-19 cells (a human retinal pigment epithelial cell-line) were maintained in DMEM-F12 medium (Dulbecco's modified Eagle's medium) supplemented with 10% fetal bovine serum, 0.348% sodium bicarbonate, 2 mM L-glutamine, 100 U/mL penicillin and 100 μg/ml streptomycin. Cell cultures were maintained at 37° C. in a humidified atmosphere of 95% air and 5% CO2. The medium was changed every 3 to 4 days. ARPE-19 cells were used within 10 generations.
All experiments were performed with an 80% confluence monolayer grown in 96-well plates or 6 well plates. Hydroxytyrosol (HTS) was dissolved in DMSO (dimethyl sulfoxide). Acrolein was dissolved in PBS (phosphate buffer salt) each time immediately before an experiment. For the acute toxicity study, cells were exposed to acrolein for 24 hours. […]
Mitochondrial potential change (ΔΨ) was assessed in live APRE-19 cells using the lipophilic cationic probe 5,5′,6,6′-tetrachloro-1,1′,3,3′-tetraethylbenzimidazol-carbocyanine iodine (JC-1). For quantitative fluorescence measurement, cells were rinsed once after JC-1 staining and scanned with a multi-label counter (Wallac 1420; PerkinElmer Life Sciences, Wellesley, Mass.) at 485 nm excitation and 535 nm and 590 nm emission, to measure green and red JC-1 fluorescence respectively. […]

Another data set concerns human ARPE-19 cells. The class given is cell-based. Here is the method: as §1
All experiments were performed with an 80% confluence monolayer grown in 96-well plates or 6 well plates. Hydroxytyrosol (HTS) was dissolved in DMSO (dimethyl sulfoxide). Acrolein was dissolved in PBS (phosphate buffer salt) each time immediately before an experiment. For the acute toxicity study, cells were exposed to acrolein for 24 hours. The protective effects of HTS (Hydroxytyrosol) were studied with the acute toxicity model by pre-treating cells with HTS for 48 hours or for 7 days.
The MTT assay reduction assay was used as a […] index of cell viability. The optical densities were read at 555 nm using a microplate spectrophotometer (Spectra Max 340, Molecular Dabices, Sunnyvale, Calif.). Absorbance values were normalized with untreated cells to calculate the changes in cell viability.
The ARPE-19 cells were seeded at 4×10^4 per well in a 96 well plate. […]

Each structure is given as a SMILES string.

With `OCCc1ccc(O)c(O)c1` [HTS, 3,4-dihydroxyphenyl ethanol], the “effect of HTS itself on mitochondrial membrane potential” value in the data set on ARPE-19 cells was “no apparent effect on mitochondrial membrane potential”. Also, the “effect of HTS itself on cell viability” value with human ARPE-19 cells (10-100 μM HTS, ARPE-19, no acrolein, FIG. 1) was “no apparent effect on cell viability”. Further, in the data set with human ARPE-19 cells (pretreatment, 75 μM acrolein 24 hours), the “HTS concentration range protecting against acute acrolein-induced decrease in cell viability” value fell in the range of 10 to 20 µM.
